According to patent US10758534B2 (Vertex Pharmaceuticals Incorporated, priority 2014, dated 2020):
Where two headings read alike, the source gives them in different places.

Molecular target: T1, F508del (Homo sapiens, UniProt P13569, DEL508-508)
T1 construct: expressed in transfected cells
Assay: Protocol 2: FRET membrane potential optical assay (VIPR), identification of correction compounds
Assay type: cell-based
Outline: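 Single-addition HTS format: F508del-expressing NIH3T3 cells pre-incubated 16 hrs at 37° C. ± compound, with 27° C. culture as positive control. Channel activation by forskolin 10 μM and genistein 20 μM upon switch to gluconate bath, pH 7.4; read-out is FRET-based depolarization signal.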

[1] = F508del CFTR modulator activity, compounds of Table 1, read-out: EC30
[2] = Table 3, compounds of Table 1 as modulators of CFTR activity, protocol not stated

T1 sequence (P13569 with tags, fused parts or gaps DEL508-508): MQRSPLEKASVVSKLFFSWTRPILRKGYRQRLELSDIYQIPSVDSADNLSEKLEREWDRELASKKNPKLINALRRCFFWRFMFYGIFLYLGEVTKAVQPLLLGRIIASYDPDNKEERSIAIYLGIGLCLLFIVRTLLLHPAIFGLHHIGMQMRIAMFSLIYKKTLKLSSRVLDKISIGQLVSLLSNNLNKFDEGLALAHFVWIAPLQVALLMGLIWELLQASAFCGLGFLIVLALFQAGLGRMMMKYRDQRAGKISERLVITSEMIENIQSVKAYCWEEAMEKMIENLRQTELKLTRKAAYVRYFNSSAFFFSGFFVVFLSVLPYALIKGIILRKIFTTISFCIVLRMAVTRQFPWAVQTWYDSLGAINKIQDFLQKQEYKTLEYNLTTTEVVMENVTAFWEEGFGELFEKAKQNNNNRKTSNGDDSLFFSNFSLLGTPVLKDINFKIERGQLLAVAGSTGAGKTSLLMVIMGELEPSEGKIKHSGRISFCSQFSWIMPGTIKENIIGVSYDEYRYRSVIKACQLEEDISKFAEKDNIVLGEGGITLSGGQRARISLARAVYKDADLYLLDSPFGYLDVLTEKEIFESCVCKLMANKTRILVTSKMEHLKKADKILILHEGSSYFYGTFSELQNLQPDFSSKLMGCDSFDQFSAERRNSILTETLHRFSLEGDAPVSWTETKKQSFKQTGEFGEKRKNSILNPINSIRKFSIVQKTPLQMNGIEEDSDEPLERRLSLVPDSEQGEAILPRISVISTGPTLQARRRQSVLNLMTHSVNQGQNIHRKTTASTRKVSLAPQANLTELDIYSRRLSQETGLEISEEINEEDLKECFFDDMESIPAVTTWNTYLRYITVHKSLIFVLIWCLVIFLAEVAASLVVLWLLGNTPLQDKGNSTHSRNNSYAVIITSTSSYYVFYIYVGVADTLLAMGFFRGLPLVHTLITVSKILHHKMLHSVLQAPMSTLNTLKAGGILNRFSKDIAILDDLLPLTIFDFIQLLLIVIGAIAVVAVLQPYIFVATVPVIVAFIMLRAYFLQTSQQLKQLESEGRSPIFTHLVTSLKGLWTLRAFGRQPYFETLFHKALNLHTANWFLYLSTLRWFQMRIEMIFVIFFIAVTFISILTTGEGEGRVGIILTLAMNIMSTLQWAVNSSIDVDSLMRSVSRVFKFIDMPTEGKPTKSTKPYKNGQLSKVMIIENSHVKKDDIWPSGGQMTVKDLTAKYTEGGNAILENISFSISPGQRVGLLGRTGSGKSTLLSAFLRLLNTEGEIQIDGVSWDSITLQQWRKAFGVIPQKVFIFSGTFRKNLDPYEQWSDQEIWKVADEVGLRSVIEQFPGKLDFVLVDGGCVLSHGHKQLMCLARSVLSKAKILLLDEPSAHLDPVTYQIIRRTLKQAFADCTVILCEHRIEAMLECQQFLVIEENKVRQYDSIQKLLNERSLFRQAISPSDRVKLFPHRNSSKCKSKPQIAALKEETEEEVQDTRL

| Compound | EC30 [1] | EC30 [2] |
| --- | --- | --- |
| CC(C)COc1cc(F)cc(-c2ccc(C(=O)NS(=O)(=O)c3ccn[nH]3)c(N3CCC(F)CC3)n2)c1 [Compound 728, 6-(3-fluoro-5-isobutoxy-phenyl)-2-(4-fluoro-1-piperidyl)-N-(1H-pyrazol-5-ylsulfonyl)pyridine-3-carboxamide] | – | ++ (“++” means between 3 uM and 10 uM) |
| CC(c1ccccc1)n1c(C(=O)NS(=O)(=O)c2cccc(N)c2)cc2c(F)cccc21 (stereo not drawn) [Compound 186, N-(3-aminophenyl)sulfonyl-4-fluoro-1-(1-phenylethyl)indole-2-carboxamide] | – | +++ (“+++” means <3 uM) |
| CC1CN(c2ncccc2C(=O)NS(=O)(=O)c2cccc(N3CCN(c4ccccc4)CC3)n2)C(C)(C)C1 (stereo not drawn) [Compound 2208, N—[[6-(4-phenylpiperazin-1-yl)-2-pyridyl]sulfonyl]-2-(2,2,4-trimethylpyrrolidin-1-yl)pyridine-3-carboxamide] | < 3 µM | – |
| CC(C)COc1cc(F)cc(-c2ccc(C(=O)NS(=O)(=O)c3ccn[nH]3)c(N3CCC[C@@H](C)C3)n2)c1 [Compound 668, 6-(3-fluoro-5-isobutoxy-phenyl)-2-[(3R)-3-methyl-1-piperidyl]-N-(1H-pyrazol-5-ylsulfonyl)pyridine-3-carboxamide] | – | +++ (“+++” means <3 uM) |
| CC1CN(c2ncccc2C(=O)NS(=O)(=O)c2cccc(OC3CCCC(C)(C)C3)n2)C(C)(C)C1 (stereo not drawn) [Compound 2038, N—[[6-(3,3-dimethylcyclohexoxy)-2-pyridyl]sulfonyl]-2-(2,2,4-trimethylpyrrolidin-1-yl)pyridine-3-carboxamide] | < 3 µM | – |
| Cc1cc(C)c(Oc2nc(-c3cnc(C(C)C)nc3)ccc2C(=O)NS(=O)(=O)c2cccc(N)n2)c(C)c1 [Compound 64, N-[(6-amino-2-pyridyl)sulfonyl]-6-(2-isopropylpyrimidin-5-yl)-2-(2,4,6-trimethylphenoxy)pyridine-3-carboxamide] | – | ++ (“++” means between 3 uM and 10 uM) |
| CC(C)COc1cc(F)cc(-c2ccc(C(=O)NS(=O)(=O)c3cccc(N)n3)c(NCC3CCCCC3)n2)c1 [Compound 2375, N-[(6-amino-2-pyridyl)sulfonyl]-2-(cyclohexylmethylamino)-6-(3-fluoro-5-isobutoxy-phenyl)pyridine-3-carboxamide] | 3 to 10 µM | – |
| CC(C)Oc1ccc(-c2ccc(C(=O)NS(=O)(=O)c3cccc(N)n3)c(N3CCC(C)C(C)(C)C3)n2)cn1 (stereo not drawn) [Compound 435, N-[(6-amino-2-pyridyl)sulfonyl]-6-(6-isopropoxy-3-pyridyl)-2-(3,3,4-trimethyl-1-piperidyl)pyridine-3-carboxamide] | – | +++ (“+++” means <3 uM) |
| CC(C)COc1cc(F)cc(-c2ccc(C(=O)NS(=O)(=O)c3ccn[nH]3)c(N3CCCCC3)n2)c1 [Compound 355, 6-(3-fluoro-5-isobutoxy-phenyl)-2-(1-piperidyl)-N-(1H-pyrazol-5-ylsulfonyl)pyridine-3-carboxamide] | – | +++ (“+++” means <3 uM) |
| CC(C)COc1cc(F)cc(-c2ccc(C(=O)NS(=O)(=O)c3cccc(N)n3)c(N(C)CC3CCCCC3)n2)c1 [Compound 2289, N-[(6-amino-2-pyridyl)sulfonyl]-2-[cyclohexylmethyl(methyl)amino]-6-(3-fluoro-5-isobutoxy-phenyl)pyridine-3-carboxamide] | < 3 µM | – |
| COCCNc1cccc(S(=O)(=O)NC(=O)c2ccc(C)nc2Oc2c(C)cc(C)cc2C)n1 [Compound 372, N-[[6-(2-methoxyethylamino)-2-pyridyl]sulfonyl]-6-methyl-2-(2,4,6-trimethylphenoxy)pyridine-3-carboxamide] | – | ++ (“++” means between 3 uM and 10 uM) |
| CC1CN(c2ncccc2C(=O)NS(=O)(=O)c2cccc(NC3CCCCCCC3)n2)C(C)(C)C1 (stereo not drawn) [Compound 2202, N—[[6-(cyclooctylamino)-2-pyridyl]sulfonyl]-2-(2,2,4-trimethylpyrrolidin-1-yl)pyridine-3-carboxamide] | < 3 µM | – |
| Cc1cc(C)c(Oc2nc(C3CCC(C)CC3)ccc2C(=O)NS(=O)(=O)c2cccc(N)n2)c(C)c1 (stereo not drawn) [Compound 172, N-[(6-amino-2-pyridyl)sulfonyl]-6-(4-methylcyclohexyl)-2-(2,4,6-trimethylphenoxy)pyridine-3-carboxamide] | – | +++ (“+++” means <3 uM) |
| C[C@@H]1CN(c2nc(-c3cccc(OC(F)(F)F)c3)ccc2C(=O)NS(=O)(=O)N2CC[C@H](N)C2)C(C)(C)C1 [Compound 2029, N-[(3S)-3-aminopyrrolidin-1-yl]sulfonyl-6-[3-(trifluoromethoxy)phenyl]-2-[(4S)-2,2,4-trimethylpyrrolidin-1-yl]pyridine-3-carboxamide] | < 3 µM | – |
| CCC(COC)Nc1cccc(S(=O)(=O)NC(=O)c2cccnc2N2CC(C)CC2(C)C)n1 (stereo not drawn) [Compound 2221, N—[[6-[1-(methoxymethyl)propylamino]-2-pyridyl]sulfonyl]-2-(2,2,4-trimethylpyrrolidin-1-yl)pyridine-3-carboxamide] | 3 to 10 µM | – |
| Cc1cc(C)c(Oc2nc(-c3cc(OCC(C)C)ccc3F)ccc2C(=O)NS(=O)(=O)c2cccc(N)n2)c(C)c1 [Compound 351, N-[(6-amino-2-pyridyl)sulfonyl]-6-(2-fluoro-5-isobutoxy-phenyl)-2-(2,4,6-trimethylphenoxy)pyridine-3-carboxamide] | – | +++ (“+++” means <3 uM) |
| Cc1cc(C)c(Oc2nc(-c3ccc(CC#N)cc3)ccc2C(=O)NS(=O)(=O)c2cccc(N)n2)c(C)c1 [Compound 638, N-[(6-amino-2-pyridyl)sulfonyl]-6-[4-(cyanomethyl)phenyl]-2-(2,4,6-trimethylphenoxy)pyridine-3-carboxamide] | – | ++ (“++” means between 3 uM and 10 uM) |
| CC(C)COc1cc(F)cc(-c2ccc(C(=O)NS(=O)(=O)c3ccn[nH]3)c(Oc3ccccc3)n2)c1 [Compound 679, 6-(3-fluoro-5-isobutoxy-phenyl)-2-phenoxy-N-(1H-pyrazol-5-ylsulfonyl)pyridine-3-carboxamide] | – | +++ (“+++” means <3 uM) |
| Cc1cc(C)c(Oc2nc(C(C)(C)C)ccc2C(=O)NS(=O)(=O)c2cccnc2N)c(C)c1 [Compound 235, N-[(2-amino-3-pyridyl)sulfonyl]-6-tert-butyl-2-(2,4,6-trimethylphenoxy)pyridine-3-carboxamide] | – | +++ (“+++” means <3 uM) |
| Cc1cc(C)c(Cn2c(C(=O)NS(=O)(=O)c3ccncc3)cc3cc(C)ccc32)c(C)c1 [Compound 25, 5-methyl-N-(4-pyridylsulfonyl)-1-[(2,4,6-trimethylphenyl)methyl]indole-2-carboxamide] | – | ++ (“++” means between 3 uM and 10 uM) |

Second part, the molecule after the results:

| EC30 [1] | EC30 [2] | Compound |
| --- | --- | --- |
| < 3 µM | – | CC(C)(C)c1ccc(C(=O)NS(=O)(=O)c2cccc(N)n2)c(N2CCC(C3CCOCC3)C2(C)C)n1 (single isomer, unassigned) [Compound 2266, N-[(6-amino-2-pyridyl)sulfonyl]-6-tert-butyl-2-(2,2-dimethyl-3-tetrahydropyran-4-yl-pyrrolidin-1-yl)pyridine-3-carboxamide] |
| < 3 µM | – | C[C@@H]1CN(c2nc(C(C)(C)C)c(C3=CCN(C(=O)CC(C)(C)C)CC3)cc2C(=O)NS(=O)(=O)c2cccc(N)n2)C(C)(C)C1 [Compound 2344, N-[(6-amino-2-pyridyl)sulfonyl]-6-tert-butyl-5-[1-(3,3-dimethylbutanoyl)-3,6-dihydro-2H-pyridin-4-yl]-2-[(4S)-2,2,4-trimethylpyrrolidin-1-yl]pyridine-3-carboxamide] |
| < 3 µM | – | CC(C)Cc1ccc(-c2cnc(N3CC(C)CC3(C)C)c(C(=O)NS(=O)(=O)c3cccc(N)n3)c2)cc1 (stereo not drawn) [Compound 2395, N-[(6-amino-2-pyridyl)sulfonyl]-5-(4-isobutylphenyl)-2-(2,2,4-trimethylpyrrolidin-1-yl)pyridine-3-carboxamide] |
| < 3 µM | – | Cc1ccc(O)c(-c2ccc(C(=O)NS(=O)(=O)c3cccnc3N)c(N3C[C@@H](C)CC3(C)C)n2)c1 [Compound 2426, N-[(2-amino-3-pyridyl)sulfonyl]-6-(2-hydroxy-5-methyl-phenyl)-2-[(4S)-2,2,4-trimethylpyrrolidin-1-yl]pyridine-3-carboxamide] |
| < 3 µM | – | CC1CN(c2ncccc2C(=O)NS(=O)(=O)c2cccc(NC3CCCCC3)n2)C(C)(C)C1 (stereo not drawn) [Compound 2250, N—[[6-(cyclohexylamino)-2-pyridyl]sulfonyl]-2-(2,2,4-trimethylpyrrolidin-1-yl)pyridine-3-carboxamide] |
| < 3 µM | – | Cc1ccc(Oc2cccc(S(=O)(=O)NC(=O)c3cccnc3N3CC(C)CC3(C)C)n2)cc1 (stereo not drawn) [Compound 2460, N—[[6-(4-methylphenoxy)-2-pyridyl]sulfonyl]-2-(2,2,4-trimethylpyrrolidin-1-yl)pyridine-3-carboxamide] |
| < 3 µM | – | CC1CN(c2ncccc2C(=O)NS(=O)(=O)c2cccc(Oc3cc(F)ccc3Cl)n2)C(C)(C)C1 (stereo not drawn) [Compound 2591, N—[[6-(2-chloro-5-fluoro-phenoxy)-2-pyridyl]sulfonyl]-2-(2,2,4-trimethylpyrrolidin-1-yl)pyridine-3-carboxamide] |
| < 3 µM | – | CC1CN(c2ncccc2C(=O)NS(=O)(=O)c2cccc(N[C@H](C)C(C)C)n2)C(C)(C)C1 (stereo partly drawn) [Compound 2318, N—[[6-[[(1R)-1,2-dimethylpropyl]amino]-2-pyridyl]sulfonyl]-2-(2,2,4-trimethylpyrrolidin-1-yl)pyridine-3-carboxamide] |
| 3 to 10 µM | – | C[C@@H]1CN(c2ncccc2C(=O)NS(=O)(=O)N2CC[C@@H](NCc3ccc(OC(C)(C)C)cc3)C2)C(C)(C)C1 [Compound 2693] |
| < 3 µM | – | C[C@@H]1CN(c2nc(-c3ccc4cc(O)ccc4c3)ccc2C(=O)NS(=O)(=O)c2cccnc2N)C(C)(C)C1 [Compound 2468, N-[(2-amino-3-pyridyl)sulfonyl]-6-(6-hydroxy-2-naphthyl)-2-[(4S)-2,2,4-trimethylpyrrolidin-1-yl]pyridine-3-carboxamide] |
